Data as given in article PMC11855827, “High-Throughput Screening of Five Compound Libraries for Anthelmintic Activity and Toxicity Leads to the Discovery of Two Flavonoid Compounds” (International Journal of Molecular Sciences, 2025).
Several values for one entry are separate records, joined by “and”; a condition that tells them apart may be missing. Identical values can stand only once. Like-named read-outs stand apart in the source and are kept apart here.

Test system: C. elegans
[1] = Table S2, C. elegans SS assay, 110 μM, 0 h, averages of 4 data points
[2] = Table S2, C. elegans SS assay, 110 μM, 24 h, averages of 4 data points

Structure (SMILES)	Percentage of motility inhibition 0 h [1]	Percentage of motility inhibition 24 h [2]	Percentage of motility inhibition 0 h (110 µM)	Percentage of motility inhibition 24 h (110 µM)
CN[C@@H]1[C@H](O[C@H]2[C@H](O[C@H]3[C@H](O)[C@@H](O)[C@H](NC(=N)N)[C@@H](O)[C@@H]3NC(=N)N)O[C@@H](C)[C@]2(O)CO)O[C@@H](CO)[C@H](O)[C@H]1O.CN[C@@H]1[C@H](O[C@H]2[C@H](O[C@H]3[C@H](O)[C@@H](O)[C@H](NC(=N)N)[C@@H](O)[C@@H]3NC(=N)N)O[C@@H](C)[C@]2(O)CO)O[C@@H](CO)[C@H](O)[C@H]1O.O=S(=O)(O)O.O=S(=O)(O)O.O=S(=O)(O)O [Dihydrostreptomycin (sulfate)]	0%	0%	–	–
Br.CO[C@H]1CC=C2CCN3CCC4=C(CC(=O)OC4)[C@]23C1 [Dihydro‐β‐er ythroidine (hydrobromide)]	7%	6%	–	–
COc1ccc(-c2cc(=O)c3c(O)cc(O[C@@H]4O[C@H](C(=O)O)[C@@H](O)[C@H](O)[C@H]4O)cc3o2)cc1O [DiosMetin 7‐O‐β‐D‐Glucuronide]	4%	21%	–	–
C[C@@]12C[C@H](c3ccoc3)O[C@@]13C[C@H](OC3=O)[C@H]1[C@H]2C[C@@H]2C[C@H]1C(=O)O2 [Diosbulbin B]	0%	31%	–	–
COc1ccc(-c2cc(=O)c3c(O)cc(O[C@@H]4O[C@H](CO)[C@@H](O)[C@H](O)[C@H]4O)cc3o2)cc1O [Diosmetin‐7‐O‐β‐D‐glucopyranoside]	53%	10%	–	–
COc1ccc(-c2cc(=O)c3c(O)cc(O[C@@H]4O[C@H](CO[C@@H]5O[C@@H](C)[C@H](O)[C@@H](O)[C@H]5O)[C@@H](O)[C@H](O)[C@H]4O)cc3o2)cc1O [Diosmin]	–	10% and 4%	–	–
Cn1c(=O)c2c(ncn2CC(O)CO)n(C)c1=O (stereo not shown) [Diphylline]	66%	31%	–	–
CC1(C)[C@@H](O[C@H]2O[C@H](C(=O)[O-])[C@@H](O)[C@H](O)[C@H]2O[C@@H]2O[C@H](C(=O)[O-])[C@@H](O)[C@H](O)[C@H]2O)CC[C@]2(C)[C@H]3C(=O)C=C4[C@@H]5C[C@@](C)(C(=O)O)CC[C@]5(C)CC[C@@]4(C)[C@]3(C)CC[C@@H]12.[K+].[K+] [Dipotassium glycyrrhizinate]	17% and 15%	3%	–	–
C[C@@H]1O[C@@H](O[C@H]2[C@H](O[C@H]3CC[C@@]4(C)[C@@H](CC[C@]5(C)[C@@H]4CC=C4[C@@H]6CC(C)(C)CC[C@]6(C(=O)O[C@@H]6O[C@H](CO[C@@H]7O[C@H](CO)[C@@H](O)[C@H](O)[C@H]7O)[C@@H](O)[C@H](O)[C@H]6O)CC[C@]45C)[C@]3(C)CO)OC[C@H](O)[C@@H]2O)[C@H](O)[C@H](O)[C@H]1O [Dipsacoside B]	–	–	7%	5%
O=C([O-])CCC(=O)[O-].[Na+].[Na+] [Disodium succinate]	19%	1%	–	–
C[C@@H]1CCO[C@H]2Cn3cc(C(=O)NCc4ccc(F)cc4F)c(=O)c([O-])c3C(=O)N12.[Na+] [Dolutegravir (sodium)]	0%	17%	–	–
CO[C@H]1C[C@H](O[C@H]2[C@H](C)O[C@@H](O[C@@H]3/C(C)=C/C[C@@H]4C[C@@H](C[C@]5(C=C[C@H](C)[C@@H](C6CCCCC6)O5)O4)OC(=O)[C@@H]4C=C(C)[C@@H](O)[C@H]5OC/C(=C\C=C\[C@@H]3C)[C@]54O)C[C@@H]2OC)O[C@@H](C)[C@@H]1O [Doramectin]	66%	49%	–	–
C[C@@H](O)[C@H]1C(=O)N2C(C(=O)O)=C(S[C@@H]3CN[C@H](CNS(N)(=O)=O)C3)[C@H](C)[C@H]12.O [Doripenem (monohydrate)]	15%	7%	–	–
COc1cccc2c1C(=O)c1c(O)c3c(c(O)c1C2=O)C[C@@](O)(C(=O)CO)C[C@@H]3O[C@H]1C[C@H](N)[C@H](O)[C@H](C)O1.Cl [Doxorubicin (hydrochloride)]	13%	4%	–	–
C[C@@H]1NC(=O)N[C@@H]1CCCCCC(=O)O [D‐Desthiobiotin]	18%	4%	–	–
COc1cc2c(cc1OC)[C@H]1Cc3ccc(OC)c(OC)c3CN1CC2 [D‐Tetrahydropalmatine]	0%	0%	–	–
C[C@H]1CC[C@H]2[C@H](C)[C@H]3CC[C@@H]4[C@@H](C[C@H]5[C@H]4CC(=O)[C@H]4C[C@@H](O)CC[C@@]45C)[C@@H]3CN2C1 [Ebeiedinone]	0%	4%	–	–

Structure (SMILES)	Percentage of motility inhibition 0 h [1]	Percentage of motility inhibition 24 h [2]	Percentage of motility inhibition 0 h (110 µM)	Percentage of motility inhibition 24 h (110 µM)
CC1(C)CC[C@]2(C(=O)O[C@@H]3O[C@H](CO)[C@@H](O)[C@H](O)[C@H]3O)[C@H](O)C[C@]3(C)C(=CC[C@@H]4[C@@]5(C)CC[C@H](O)C(C)(C)[C@@H]5CC[C@]43C)[C@@H]2C1 [Echinocystic acid 28-O-β-D-glucoside]	36%	41%	–	–
CC1(C)CC[C@]2(C(=O)O[C@@H]3O[C@H](CO)[C@@H](O)[C@H](O)[C@H]3O)[C@H](O)C[C@]3(C)C(=CC[C@@H]4[C@@]5(C)CC[C@H](O[C@@H]6O[C@H](CO)[C@@H](O)[C@H](O)[C@H]6O)C(C)(C)[C@@H]5CC[C@]43C)[C@@H]2C1 [Eclalbasaponin I]	35%	35%	–	–
Clc1ccc(COC(Cn2ccnc2)c2ccc(Cl)cc2Cl)cc1.O=[N+]([O-])O (stereo not shown) [Econazole (nitrate)]	35%	13%	–	–
C[C@H]1CC[C@@H]2N(C1)C[C@H]1[C@@H]3C[C@H]4[C@@H](CC(=O)[C@H]5C[C@@H](O[C@@H]6O[C@H](CO)[C@@H](O)[C@H](O)[C@H]6O)CC[C@@]54C)[C@@H]3CC[C@@H]1[C@]2(C)O [Edpetiline]	11%	56%	–	–
Cc1c2ccncc2c(C)c2c1[nH]c1ccccc12.Cl [Ellipticine (hydrochloride)]	9%	11%	–	–
CC[C@H]1CN2CCc3cc(OC)c(OC)cc3[C@@H]2C[C@@H]1C[C@H]1NCCc2cc(OC)c(OC)cc21.Cl.Cl.O [Emetine (dihydrochloride hydrate)]	52%	7%	–	–
CC(C)C[C@H]1C(=O)O[C@H](Cc2ccc(N3CCOCC3)cc2)C(=O)N(C)[C@@H](CC(C)C)C(=O)O[C@H](C)C(=O)N(C)[C@@H](CC(C)C)C(=O)O[C@H](Cc2ccc(N3CCOCC3)cc2)C(=O)N(C)[C@@H](CC(C)C)C(=O)O[C@H](C)C(=O)N1C [Emodepside]	69%	47%	–	–
CCn1cc(C(=O)O)c(=O)c2cc(F)c(N3CCNCC3)nc21 [Enoxacin (hydrate)]	17%	0%	–	–
CS/C=C/C(=O)NCCO[C@@H]1O[C@H](CO)[C@@H](O)[C@H](O)[C@H]1O [Entadamide‐A‐β‐D‐glucopyranoside]	24%	13%	–	–
C=C1[C@H](CO)[C@@H](O)C[C@@H]1n1cnc2c(=O)[nH]c(N)nc21.O [Entecavir (monohydrate)]	18%	3%	–	–
COc1cc2c(cc1OC)-c1cc3ccc4c(c3c[n+]1CC2)OCO4.[Cl-] [Epiberberine (chloride)]	22%	8%	–	–
C=CC1CNC(=S)O1 (stereo not shown) [Epigoitrin]	6%	0%	–	–
COc1ccc(-c2oc3c(CC=C(C)C)c(O[C@@H]4O[C@H](CO)[C@@H](O)[C@H](O)[C@H]4O)cc(O)c3c(=O)c2O[C@@H]2O[C@@H](C)[C@H](O)[C@@H](O[C@@H]3O[C@H](CO)[C@@H](O)[C@H](O)[C@H]3O)[C@H]2O)cc1 [Epimedin A1]	6%	5%	–	–
COc1ccc(-c2oc3c(CC=C(C)C)c(O[C@@H]4O[C@H](CO)[C@@H](O)[C@H](O)[C@H]4O)cc(O)c3c(=O)c2O[C@@H]2O[C@@H](C)[C@H](O)[C@@H](O)[C@H]2O[C@@H]2OC[C@@H](O)[C@H](O)[C@H]2O)cc1 [Epimedin B]	15%	32%	–	–
COc1ccc(-c2oc3c(CC=C(C)C)c(O[C@@H]4O[C@H](CO)[C@@H](O)[C@H](O)[C@H]4O)cc(O)c3c(=O)c2O[C@@H]2O[C@@H](C)[C@H](O)[C@@H](O)[C@H]2O[C@@H]2O[C@@H](C)[C@H](O)[C@@H](O)[C@H]2O)cc1 [Epmedin C]	0%	0%	–	–
C=C1C(=O)O[C@H]2[C@H]1CC[C@]1(C)O[C@@]13CC[C@@](C)(O)[C@H]23 [Epoxymicheliolide]	16%	24%	–	–
C[N+](C)(C)[C@@H](Cc1c[nH]c(=S)[nH]1)C(=O)[O-] [Ergothioneine]	16%	0%	–	–
